Data published in patent US5948807A (priority 1997, dated 1999).
Structures can show the parent of a compound that is named as a salt.

Tests used:
[1] = target: SERT-1, cocaine binding site on the serotonin transporter (Homo sapiens, UniProt P31645); test: biochemical
[2] = target: SERT-2, paroxetine binding site on the serotonin transporter (Homo sapiens, UniProt P31645); test: biochemical
[3] = target: DAT, dopamine transporter (Homo sapiens, UniProt Q01959); test: radioligand binding, DAT ([^3 H]WIN35,428); conditions: radioligand [^3 H]WIN35,428; racemic; spiroindanamines as hydrochlorides; read-out: Affinity (IC50) DAT ([^3 H]WIN35,428)
DAT, dopamine transporter, sequence (Q01959 whole entry): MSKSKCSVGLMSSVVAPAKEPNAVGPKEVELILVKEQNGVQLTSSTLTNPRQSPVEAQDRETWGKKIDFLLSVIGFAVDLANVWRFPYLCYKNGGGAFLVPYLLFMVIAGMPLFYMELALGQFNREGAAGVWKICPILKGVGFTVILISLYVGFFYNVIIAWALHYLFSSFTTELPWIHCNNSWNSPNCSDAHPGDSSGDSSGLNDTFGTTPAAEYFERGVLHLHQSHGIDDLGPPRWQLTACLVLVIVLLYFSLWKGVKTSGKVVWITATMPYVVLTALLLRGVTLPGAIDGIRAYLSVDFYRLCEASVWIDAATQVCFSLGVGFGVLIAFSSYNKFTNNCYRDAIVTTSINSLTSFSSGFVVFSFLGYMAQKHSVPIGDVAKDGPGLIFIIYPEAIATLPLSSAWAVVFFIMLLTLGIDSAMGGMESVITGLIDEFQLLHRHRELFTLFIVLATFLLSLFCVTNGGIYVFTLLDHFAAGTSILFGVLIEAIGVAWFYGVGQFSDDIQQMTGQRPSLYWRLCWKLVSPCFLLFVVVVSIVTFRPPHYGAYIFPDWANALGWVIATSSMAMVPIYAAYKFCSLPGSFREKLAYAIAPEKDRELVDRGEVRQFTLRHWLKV

mu opioid receptor = mu opioid receptor (Homo sapiens, UniProt P35372); test: biochemical; format: binding
mu opioid receptor, sequence (P35372 whole entry): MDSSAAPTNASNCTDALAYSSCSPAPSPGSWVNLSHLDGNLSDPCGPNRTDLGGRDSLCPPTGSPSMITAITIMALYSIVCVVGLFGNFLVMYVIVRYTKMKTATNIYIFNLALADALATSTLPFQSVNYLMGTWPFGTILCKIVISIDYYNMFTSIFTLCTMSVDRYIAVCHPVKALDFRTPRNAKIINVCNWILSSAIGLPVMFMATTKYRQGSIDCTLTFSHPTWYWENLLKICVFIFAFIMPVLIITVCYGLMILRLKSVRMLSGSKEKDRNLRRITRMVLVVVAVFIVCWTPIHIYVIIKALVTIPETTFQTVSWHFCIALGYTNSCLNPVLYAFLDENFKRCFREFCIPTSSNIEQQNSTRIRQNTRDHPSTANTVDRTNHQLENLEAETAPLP

kappa opioid receptor = kappa opioid receptor (Homo sapiens, UniProt P41145); test: biochemical; format: binding
kappa opioid receptor, sequence (P41145 whole entry): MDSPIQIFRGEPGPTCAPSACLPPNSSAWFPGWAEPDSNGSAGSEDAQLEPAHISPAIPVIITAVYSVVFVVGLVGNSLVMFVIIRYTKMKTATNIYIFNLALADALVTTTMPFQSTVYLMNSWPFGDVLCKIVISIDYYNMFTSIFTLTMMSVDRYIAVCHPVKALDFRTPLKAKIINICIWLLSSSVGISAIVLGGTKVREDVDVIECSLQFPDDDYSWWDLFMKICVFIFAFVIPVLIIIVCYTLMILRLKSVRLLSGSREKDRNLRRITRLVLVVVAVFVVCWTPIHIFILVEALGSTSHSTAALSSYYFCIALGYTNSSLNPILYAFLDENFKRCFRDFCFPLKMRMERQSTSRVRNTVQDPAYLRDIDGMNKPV

serotonin transporter = test: binding at serotonin transporter, comparison with SSRIs; conditions: vs citalopram, sertraline and fluoxetine

SERT-2, paroxetine binding site on the serotonin transporter, sequence (P31645 whole entry): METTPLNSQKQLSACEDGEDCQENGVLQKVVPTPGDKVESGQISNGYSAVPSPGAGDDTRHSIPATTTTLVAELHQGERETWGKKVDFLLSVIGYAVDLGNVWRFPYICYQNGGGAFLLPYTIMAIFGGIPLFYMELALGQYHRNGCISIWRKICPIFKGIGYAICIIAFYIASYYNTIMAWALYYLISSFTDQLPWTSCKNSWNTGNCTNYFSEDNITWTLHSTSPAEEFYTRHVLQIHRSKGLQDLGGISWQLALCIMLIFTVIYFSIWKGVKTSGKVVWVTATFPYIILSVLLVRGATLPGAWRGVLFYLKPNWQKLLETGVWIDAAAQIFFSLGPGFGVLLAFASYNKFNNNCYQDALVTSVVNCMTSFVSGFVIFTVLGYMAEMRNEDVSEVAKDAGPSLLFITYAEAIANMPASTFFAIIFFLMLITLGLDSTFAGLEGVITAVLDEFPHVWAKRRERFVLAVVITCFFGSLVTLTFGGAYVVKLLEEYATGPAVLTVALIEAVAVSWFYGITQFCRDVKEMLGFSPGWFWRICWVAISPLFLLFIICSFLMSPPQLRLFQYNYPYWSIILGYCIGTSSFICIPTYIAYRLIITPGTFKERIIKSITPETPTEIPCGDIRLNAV
SERT-1, cocaine binding site on the serotonin transporter, sequence (P31645 whole entry): as above

Row | Structure (SMILES) | IC50 [1] [µM] | IC50 [2] [µM] | IC50 [3] [µM] | IC50 (mu opioid receptor) [µM] | IC50 (kappa opioid receptor) [µM] | affinity for SERT-1 (in words) [1] | affinity at SERT-2 (in words) [2] | affinity for the serotonin transporter relative to SSRIs (serotonin transporter)
1 | c1ccc(C2CC3(CCN(CC4CC4)C3)c3ccccc32)cc1 (racemic) [Compound 4a, 1'-Cyclopropylmethyl-3-phenylspiro[indan-1,3'-pyrrolidine] hydrochloride] | 2.41 | 2 | 2.9 | 0.98 | 1 |  |  | 
2 | c1ccc(C2CC3(CCNC3)c3ccccc32)cc1 (racemic) [Compound 3a, 3-Phenylspiro[indan-1,3'-pyrrolidine]] | 0.01 | 2.5 | 0.2 | 0.5 | 10 | low nanomolar affinity | moderate to weak affinity | comparable to or higher than that of other specific serotonin re-uptake inhibitors (SSRIs)
3 | COc1ccc2c(c1)C1(CC(=O)NC1=O)CC2c1ccc(Cl)c(Cl)c1 (racemic) [Compound 1c, 3-(3,4-Dichlorophenyl)-6-methoxyspiro[indan-1,3'-pyrrolidin]-2',5'-dione] | 0.25 | > 100 |  | 100 | > 100 |  | higher affinity for SERT-2 than the basic spiroindanamines 3d and 4a | 
4 | Oc1ccc2c(c1)C1(CCNC1)CC2c1ccc(Cl)c(Cl)c1 (racemic) [Compound 3d, 3-(3,4-Dichlorophenyl)-6-hydroxyspiro[indan-1,3'-pyrrolidine]] | 0.75 | 0.3 | 0.73 | 2.9 | 1.52 |  |  | 
5 | COc1ccc2c(c1)C1(CCNC1)CC2c1ccc(Cl)c(Cl)c1 (racemic) [Compound 3c, 3-(3,4-Dichlorophenyl)-6-methoxyspiro[indan-1,3'-pyrrolidine]] | 0.002 | 0.4 | 0.15 | 5 | 80 | low nanomolar affinity | moderate to weak affinity | comparable to or higher than that of other specific serotonin re-uptake inhibitors (SSRIs)
6 | O=C1C[C@@]2(C[C@@H](c3ccccc3)c3ccccc32)C(=O)N1 (relative stereo) [Compound 1a, cis-3-Phenylspiro[indan-1,3'-pyrrolidine]-2',5'-dione] | 26.7 | > 100 |  | 100 | > 100 |  |  | 
